What was measured:
Format in all cases: cell-based
[1] = tested on: chimeric protein PPARγ-Gal4; assay: PPAR activation, Gal4 chimera luciferase reporter gene test in co-transfected CV-1 cells; details: 50 μM, CV-1 cells (monkey kidney cells), 18 hours contact
Description: (§1) The measurement of the PPAR activation was performed according to a technique described by Lehmann et al. (J. Biol. Chem., 270, (1995), 12953-12956).
(§2) CV-1 cells (monkey kidney cells) are co-transfected with an expression vector for the chimeric proteins PPARα-Gal4 or PPARγ-Gal4 and with a “reporter” plasmid that allows the expression of the luciferase gene placed under the control of a promoter containing Gal4 response elements.
(§3) The cells are plated into 96-well microplates and co-transfected using a commercial reagent with the reporter plasmid (pG5-tk-pGL3) and the expression vector for the chimeric protein ([…]). After incubating for 4 hours, whole culture medium (comprising 10% foetal calf serum) is added to the wells. After 24 hours, the medium is removed and replaced with whole medium comprising the test products (50 μM final). The products are left in contact with the cells for 18 hours. The cells are then lysed and the luciferase activity is measured using a luminometer. A PPAR activation factor can then be calculated by means of activation of the expression of the reporter gene induced by the product (relative to the control cells that have not received any product).

[2] = biological target: T1, chimeric protein PPARα-Gal4 (Homo sapiens, UniProt Q07869); assay: as above; details: 50 μM, CV-1 cells (monkey kidney cells), 18 hours contact
T1 construct: Gal4 (fusion partner); expressed in transfected cells; host or cells: CV-1 cells (monkey kidney cells)
T1 sequence (Q07869 239-466 limits assumed): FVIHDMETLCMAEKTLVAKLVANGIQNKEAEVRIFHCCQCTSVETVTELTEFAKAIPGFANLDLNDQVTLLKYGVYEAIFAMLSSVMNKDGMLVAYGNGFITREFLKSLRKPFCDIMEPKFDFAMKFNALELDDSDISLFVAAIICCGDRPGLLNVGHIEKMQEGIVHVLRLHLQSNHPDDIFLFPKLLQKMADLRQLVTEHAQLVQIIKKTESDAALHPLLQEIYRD
Description: as §1, §2, §3

Gal4 alone = assay: Control: luciferase reporter test with vector expressing Gal4 alone (no PPAR ligand binding domain); details: CV-1 cells; in the presence of the product
Description: CV-1 cells (monkey kidney cells) are co-transfected with an expression vector for the chimeric proteins PPARα-Gal4 or PPARγ-Gal4 and with a “reporter” plasmid that allows the expression of the luciferase gene placed under the control of a promoter containing Gal4 response elements. The cells are plated into 96-well microplates and co-transfected using a commercial reagent with the reporter plasmid (pG5-tk-pGL3) and the expression vector for the chimeric protein ([…]). After incubating for 4 hours, whole culture medium (comprising 10% foetal calf serum) is added to the wells. After 24 hours, the medium is removed and replaced with whole medium comprising the test products (50 μM final). The products are left in contact with the cells for 18 hours. The cells are then lysed and the luciferase activity is measured using a luminometer. A PPAR activation factor can then be calculated by means of activation of the expression of the reporter gene induced by the product (relative to the control cells that have not received any product). [drawing 12] at a concentration of 50 μM, activates the chimeric protein PPARα-Gal-4 by a factor of 2.3, and the chimeric protein […] by a factor of 6.4. In the absence of the binding domain for the PPAR α or γ ligand (vector expressing Gal4 alone), the luciferase activity measured in the presence of this product is zero.

Q: Which “activation factor of the chimeric protein PPARα-Gal4 (second mention; reporter gene expression relative to control cells)” value [1] does the source give for CCOC(=O)C(/C=C/c1ccccc1)Oc1ccccc1 (stereo not drawn) here?
A: 6.4

Q: What about the “activation factor of the chimeric protein PPARα-Gal-4 (reporter gene expression relative to control cells)” value [2] of the same compound?
A: 2.3

Q: What about the “luciferase activity in the absence of the binding domain for the PPAR α or γ ligand (vector expressing Gal4 alone)” value (Gal4 alone) of the same compound?
A: zero

Reference: patent US8247448B2, “Butenoic acid derivatives, processes for the preparation thereof, pharmaceutical compositions comprising them, and use for the treatment of dyslipidaemia, atherosclerosis and diabetes” (Merck Patent GmbH, priority 2003, dated 2012)
